Literature values as cited in patent US7205008B2, “Methods of treating Alzheimer's disease and other amyloidoses using Hypericum perforatum and derivatives thereof” (ProteoTech, Inc., priority 2000, dated 2007).

Compound: Cc1cc(O)c2c(=O)c3c(O)cc(O)c4c5c(O)cc(O)c6c(=O)c7c(O)cc(C)c8c1c2c(c34)c(c78)c65 [hypericin]
- fraction of hypericin absorbed (after swallowing a pill of Hypericum perforatum, estimated): about 20%
- time it lasts in the bloodstream (dose of 0.75 mg of hypericin): more than a day
